As usually defined, the IC50 is the concentration needed to halve the response being measured.

Molecules are shown by their SMILES.

The source of these data is US8466149B2, “6-substituted sulfonyl azabicyclo[3.2.1]octanes useful to inhibit 11β-hydroxysteroid dehydrogenase type-I” (Merck Sharp & Dohme Corp., priority 2007, dated 2013).

In one assay the target is T1, Human 11β-HSD1 (Homo sapiens, UniProt P28845).
T1 construct: myc (N); made in house; host or cells: Sf9 cells (baculovirus, Bac-to-Bac)
T1 sequence (P28845 whole entry): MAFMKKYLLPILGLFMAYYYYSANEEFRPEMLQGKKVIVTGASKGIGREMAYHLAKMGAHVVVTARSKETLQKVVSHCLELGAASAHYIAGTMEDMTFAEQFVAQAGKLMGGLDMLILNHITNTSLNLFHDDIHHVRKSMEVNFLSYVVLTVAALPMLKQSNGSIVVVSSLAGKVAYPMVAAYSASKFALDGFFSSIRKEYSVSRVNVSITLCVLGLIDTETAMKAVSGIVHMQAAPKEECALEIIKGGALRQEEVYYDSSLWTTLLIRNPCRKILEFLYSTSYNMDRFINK
The experiment in a line: In vitro 11β-HSD1 activity assay (SPA, 3H-cortisone, membranes). Format: biochemical. Particulars: human 11β-HSD1 membranes, 125 nM 3H-cortisone, read-out: Human 11β-HSD-1 IC50. The protocol:
In vitro 11β-HSD1 activity assay Preparation of 11β-HSD1 membranes
Human 11β-HSD1 with N-terminal myc tag was expressed in Sf9 cells using baculovirus Bac-to-Bac expression system (Invitrogen) according to manufacturer's instructions. Cells were harvested three days after infection and washed in PBS before frozen. To make membranes, the cells were resuspended in buffer A (20 mM Tris-HCl, pH7.4, 100 mM NaCl, 2 mM EDTA, 2 mM EGTA and Complete™ protease inhibitor tablets (Roche Molecular Biochemicals)), and lysed in a nitrogen bomb at 900 psi. The cell lysate was centrifuged at 600 g for 10 min to remove nuclei and large cell debris. The supernatant was centrifuged at 100,000 g for 1 hr. The membrane pellet was resuspended in buffer A, flash-frozen in liquid nitrogen and stored at −70° C. before use.
(§1) Measurement of 11β-HSD1 activity
(§2) 11β-HSD1 enzymatic activity was measured in a 50 μl reaction containing 20 mM NaPO4 pH 7.5, 0.1 mM MgCl2, 3 mM NADPH (prepared fresh daily), 125 nM ^3H-cortisone (American Radiochemicals) and 0.5 μg membrane. The reaction was incubated at room temperature for 1 hr before it was stopped by addition of […] containing 20 mM NaPO4 pH 7.5, 30 μM 18β-glycyrrhetinic acid, 1 μg/ml monoclonal anti-cortisol antibody (Biosource) and 2 mg/ml anti-mouse antibody coated scintillation proximity assay (SPA) beads (Amersham Bioscience). The mixture was incubated at room temperature for 2 hrs with vigorous shaking and analyzed on TopCount scintillation counter.

In a further assay the target is Mouse 11β-HSD-1 (Mus musculus, UniProt P50172). Briefly: In vitro 11β-HSD1 activity assay, mouse enzyme. Format: biochemical. As for the experimental part:
as §1, §2

The next assay deals with T2, 11β-HSD-1 (Mus musculus, UniProt P50172).
T2 construct: from tissue; host or cells: whole animal, C57Bl/6N mice
T2 sequence (P50172 whole entry): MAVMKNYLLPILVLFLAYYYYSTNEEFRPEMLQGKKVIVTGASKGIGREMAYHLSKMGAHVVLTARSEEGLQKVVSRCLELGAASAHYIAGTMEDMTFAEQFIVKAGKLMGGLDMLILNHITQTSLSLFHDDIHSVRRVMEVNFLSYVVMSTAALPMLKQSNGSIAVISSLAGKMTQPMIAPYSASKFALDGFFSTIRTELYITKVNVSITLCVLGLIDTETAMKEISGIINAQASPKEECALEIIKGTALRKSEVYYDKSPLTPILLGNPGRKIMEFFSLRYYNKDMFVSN
The experiment in a line: In vivo screen for inhibition of 11β-HSD-1 (mouse cortisone challenge, plasma cortisol). As to conditions: 30 mpk oral, lean male C57BI/6N mice, cortisone 1 mg/kg sc, plasma cortisol by ELISA. As for the experimental part:
In Vivo Screen for Inhibition of 11β-HSD-1
Lean male C57BI/6N mice were orally dosed with a solution of dexamethasone (0.5 mg/kg) and test agent or vehicle (20% HPβCD (10 ml/kg)). One hour later, cortisone was administered (1 mg/kg sc in sesame oil). One hour after cortisone administration, animals were euthanized for blood collection, and plasma cortisol levels were determined with a commercially available ELISA.

Sequence of Mouse 11β-HSD-1 (P50172 whole entry): as above

As for `CC1(C)CC2CC(C)(CN2S(=O)(=O)c2ccc([N+](=O)[O-])cc2)C1` (stereo not drawn) [compound 75], the IC50 on Human 11β-HSD1 was determined as 126 nM; on Mouse 11β-HSD-1, 5940 nM.
As for `CC(O)c1ccc(S(=O)(=O)N2CC3(C)CC2CC(C)(C)C3)cc1` (stereo not drawn) [compound 44], the IC50 on Human 11β-HSD1 was 16 nM; against Mouse 11β-HSD-1 it was 67 nM. Also, at 11β-HSD-1, the “Mouse cort. challenge % I @ 30 mpk” value amounted to 63%.
On to `CC(C)c1ccc(S(=O)(=O)N2CC3(C)CC2CC(C)(C)C3)cc1` (stereo not drawn) [compound 17], for which the IC50 was 67 nM on Human 11β-HSD1 and 127 nM against Mouse 11β-HSD-1.
Regarding `CCC(C)(C)c1ccc(S(=O)(=O)N2CC3(C)CC2CC(C)(C)C3)cc1` (stereo not drawn) [Compound No. 23], the IC50 at Human 11β-HSD1 amounted to 28 nM; against Mouse 11β-HSD-1, 19 nM. Also, the “Mouse cort. challenge % I @ 30 mpk” value on 11β-HSD-1 was found to be 26%.
With `CC1(C)CC2CC(C)(CN2S(=O)(=O)c2ccc(-c3ccccc3)cc2)C1` (stereo not drawn) [compound 25], the IC50 stood at 169 nM on Human 11β-HSD1 and 364 nM against Mouse 11β-HSD-1.
The like results for `CC1(C)CC2CC(C)(CN2S(=O)(=O)c2ccc(Cl)c3nonc23)C1` (stereo not drawn) [compound 3] were, in that order, 407 nM and 1870 nM.
For `CC1(C)CC2CC(C)(CN2S(=O)(=O)c2ccc(Cl)cc2)C1` (stereo not drawn) [compound 13], the results for the IC50 on Human 11β-HSD1 and against Mouse 11β-HSD-1 were 407 nM and 2480 nM, respectively.
In the same order, the values of `CC1(C)CC2CC(C)(CN2S(=O)(=O)Cc2ccccc2)C1` (stereo not drawn) [compound 4] are 3390 nM and 7930 nM.
The like results for `COc1cccc(S(=O)(=O)N2CC3(C)CC2CC(C)(C)C3)c1` (stereo not drawn) [compound 10] were, in that order, 2510 nM and 3170 nM.
In the same order, the values of `CCc1ccc(S(=O)(=O)N2CC3(C)CC2CC(C)(C)C3)cc1` (stereo not drawn) [compound 9] are 190 nM and 420 nM.
Turning to `Cc1ccccc1S(=O)(=O)N1CC2(C)CC1CC(C)(C)C2` (stereo not drawn) [Compound No. 5], the values for the IC50 on Human 11β-HSD1 and on Mouse 11β-HSD-1 were 3010 nM and 18200 nM, respectively.
In the same order, the values of `CC1(C)CC2CC(C)(CN2S(=O)(=O)c2ccc(C3CCCCC3)cc2)C1` (stereo not drawn) [compound 61] are 415 nM and 165 nM.
In the same order, the values of `CC1(C)CC2CC(C)(CN2S(=O)(=O)c2ccccc2Cl)C1` (stereo not drawn) [compound 12] are 1410 nM and 28200 nM.
In the same order, the values of `CCC(C)c1ccc(S(=O)(=O)N2CC3(C)CC2CC(C)(C)C3)cc1` (stereo not drawn) [compound 68] are 55 nM and 112 nM.
On to `CC1(C)CC2CC(C)(CN2S(=O)(=O)c2ccc(-c3cnco3)cc2)C1` (stereo not drawn) [compound 62], for which the IC50 at Human 11β-HSD1 was 96 nM; against Mouse 11β-HSD-1, 309 nM.
In the same order, the values of `CC1(C)CC2CC(C)(CN2S(=O)(=O)c2ccccc2C#N)C1` (stereo not drawn) [compound 29] are 5710 nM and 13300 nM.
As for `CC1(C)CC2CC(C)(CN2S(=O)(=O)c2ccc(C(C)(C)C)cc2)C1` (stereo not drawn) [Compound No. 1], the IC50 on Human 11β-HSD1 worked out at 31 nM; against Mouse 11β-HSD-1 it was 71 nM. Besides, at 11β-HSD-1, the “Mouse cort. challenge % I @ 30 mpk” value is on record as 30%.
For the molecule `COC(C)(C)c1ccc(S(=O)(=O)N2CC3CC(C)(C2)CC3(C)C)cc1` (stereo not drawn) [compound 49], the IC50 is 23 nM on Human 11β-HSD1 and 11 nM on Mouse 11β-HSD-1. Also, the “Mouse cort. challenge % I @ 30 mpk” value at 11β-HSD-1 was 19%.
Take `CC(C)Oc1ccc(S(=O)(=O)N2CC3(C)CC2CC(C)(C)C3)cc1` (stereo not drawn) [compound 64]: the results for the IC50 on Human 11β-HSD1 and at Mouse 11β-HSD-1 were 340 nM and 217 nM, respectively.
The like results for `CCC(C)(O)c1ccc(S(=O)(=O)N2CC3(C)CC2CC(C)(C)C3)cc1` (stereo not drawn) [compound 69] were, in that order, 30 nM and 68 nM.
The like results for `CCOC(C)c1ccc(S(=O)(=O)N2CC3(C)CC2CC(C)(C)C3)cc1` (stereo not drawn) [compound 46] were, in that order, 10 nM and 87 nM.
The like results for `CC1(C)CC2CC(C)(CN2S(=O)(=O)c2ccc(-c3csnn3)cc2)C1` (stereo not drawn) [compound 63] were, in that order, 111 nM and 305 nM.
As for `CC(=O)c1ccc(S(=O)(=O)N2CC3(C)CC2CC(C)(C)C3)cc1` (stereo not drawn) [Compound No. 16], the values for the IC50 at Human 11β-HSD1 and at Mouse 11β-HSD-1 were 139 nM and 732 nM, respectively.
In the same order, the values of `CC1(C)CC2CC(C)(CN2S(=O)(=O)c2ccc(C(F)(F)F)cc2)C1` (stereo not drawn) [compound 48] are 268 nM and 686 nM.
On to `CC1(C)CC2CC(C)(CN2S(=O)(=O)c2ccc(C#N)cc2)C1` (stereo not drawn) [compound 76], for which the IC50 amounted to 126 nM at Human 11β-HSD1 and 1820 nM against Mouse 11β-HSD-1.
In the same order, the values of `CCCCc1ccc(S(=O)(=O)N2CC3(C)CC2CC(C)(C)C3)cc1` (stereo not drawn) [compound 65] are 372 nM and 950 nM.
In the same order, the values of `CC1(C)CC2CC(C)(CN2S(=O)(=O)c2ccc(I)cc2)C1` (stereo not drawn) [compound 32] are 2510 nM and 3170 nM.
As for `COC(C)c1ccc(S(=O)(=O)N2CC3(C)CC2CC(C)(C)C3)cc1` (stereo not drawn) [compound 45], the figures for the IC50 at Human 11β-HSD1 and against Mouse 11β-HSD-1 were 19 nM and 27 nM, respectively. Further, the “Mouse cort. challenge % I @ 30 mpk” value on 11β-HSD-1 came out at 16%.
For the molecule `CC1(C)CC2CC(C)(CN2S(=O)(=O)c2ccc(C(C)(C)O)cc2)C1` (stereo not drawn) [compound 50], the IC50 on Human 11β-HSD1 is 7 nM; against Mouse 11β-HSD-1, 43 nM. For the same molecule, the “Mouse cort. challenge % I @ 30 mpk” value at 11β-HSD-1 was determined as 43%.
As for `Cc1ccc(S(=O)(=O)N2CC3(C)CC2CC(C)(C)C3)cc1` (stereo not drawn) [Compound No. 6], the results for the half-maximal inhibitory concentration (IC50) at Human 11β-HSD1 and at Mouse 11β-HSD-1 were 247 nM and 670 nM, respectively.
